Target: T1, FGFR1 (Homo sapiens, UniProt P11362)
T1 construct: purchased Invitrogen PV4105
Assay: Z′-LYTE Detection Kinase Assay, in vitro enzymatic activity
Assay type: biochemical
Conditions: 0.6 nM FGFR1, 2 uM Tyr4 peptide, 10 uM ATP, 60 min 23° C.
Experimental: To measure enzyme activity by Z′-LYTE™ Detection Kinase Assay, and to evaluate the inhibitory effect of the compounds on FGFR1 using IC50 value of the compounds as an indicator. […]
Reaction Buffer: 50 mM Hepes (pH 7.5), 10 mM MgCl2, 1 mM EGTA, 0.01% Brij-35, 1 mM DTT, 2 mM MnCl2 0.6 nM FGFR1, 2 uM Tyr4 peptide and 10 uM ATP in reaction buffer (50 mM Hepes, pH 7.5, 10 mM MgCl2, 0.01% BRIJ-35, 1 mM EGTA, 4 mM MnCl2, 2 mM DTT). a. Diluting the compounds with DMSO to 10 mM, 3-fold dilution, 11 gradients, duplicate wells. b. Diluting the compound by 1:25 into middle plate at Bravo Automatic Liquid Station, then transferring 2.5 ul to the reaction plate to ensure the final DMSO concentration to be 1%. c. Transferring 5 ul of enzyme/substrate buffer into each well d. Using Multidrop Liquid Workstation to sequentially add ATP solution to each well e. Centrifuging at 1000 rpm for 1 minute f. Placing the reaction plate in an incubator at 23° C. to react for 60 min. a. Preparing a 1:128 mixture of Development Regent B and Development Buffer b. Adding 5 ul to each well and centrifuging at 1000 rpm for 1 minute c. Placing the reaction plate in a thermostat (23° C.) after centrifuging for 90 minutes, removing and reading on Envision (Perkin Elmer) Plate Reader
D. Analyzing Data: Analyzing Data Using XLFIT (IDBS) and Calculating IC50 Values for the Compounds.

T1 sequence (P11362 22-822): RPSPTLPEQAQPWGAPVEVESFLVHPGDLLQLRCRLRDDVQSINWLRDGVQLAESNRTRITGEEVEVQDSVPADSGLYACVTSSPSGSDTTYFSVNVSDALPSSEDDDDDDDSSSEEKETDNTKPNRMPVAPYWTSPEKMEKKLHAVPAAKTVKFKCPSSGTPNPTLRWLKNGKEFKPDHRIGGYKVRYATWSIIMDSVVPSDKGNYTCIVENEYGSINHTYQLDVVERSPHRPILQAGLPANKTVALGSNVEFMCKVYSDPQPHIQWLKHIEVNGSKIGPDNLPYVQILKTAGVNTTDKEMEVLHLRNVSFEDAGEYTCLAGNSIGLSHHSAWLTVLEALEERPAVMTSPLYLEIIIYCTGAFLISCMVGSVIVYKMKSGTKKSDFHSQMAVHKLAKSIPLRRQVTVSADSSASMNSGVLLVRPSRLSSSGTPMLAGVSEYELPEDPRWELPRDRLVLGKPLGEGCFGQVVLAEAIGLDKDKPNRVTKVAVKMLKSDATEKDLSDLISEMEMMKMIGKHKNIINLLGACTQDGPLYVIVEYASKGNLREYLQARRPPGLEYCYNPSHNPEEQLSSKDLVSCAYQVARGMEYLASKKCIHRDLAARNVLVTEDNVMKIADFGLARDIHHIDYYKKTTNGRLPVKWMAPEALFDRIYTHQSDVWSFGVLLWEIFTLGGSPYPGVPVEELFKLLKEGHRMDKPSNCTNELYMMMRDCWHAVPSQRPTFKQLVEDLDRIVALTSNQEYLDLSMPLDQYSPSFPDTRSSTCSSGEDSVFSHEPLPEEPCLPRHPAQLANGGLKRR

SMILES	IC50 [nM]
C[C@@H](Oc1ccc2[nH]nc(/C(F)=C\c3ccc(CN4CCOCC4)nc3)c2c1)c1c(Cl)cncc1Cl [Example 2]	50 to 1000
C[C@H](Oc1ccc2[nH]nc(/C(F)=C\c3ccc(CN4CCOCC4)nc3)c2c1)c1c(Cl)cncc1Cl [Example 3]	50 to 1000
C[C@@H](Oc1ccc2[nH]nc(/C(F)=C/c3ccc(CN4CCOCC4)nc3)c2c1)c1c(Cl)cncc1Cl [Example 4]	50 to 1000
C[C@H](Oc1ccc2[nH]nc(/C(F)=C/c3ccc(CN4CCOCC4)nc3)c2c1)c1c(Cl)cncc1Cl [Example 5]	50 to 1000
C[C@H](Oc1ccc2[nH]nc(/C(O)=C/c3ccc(CN4CCOCC4)nc3)c2c1)c1c(Cl)cncc1Cl [Example 6]	50 to 1000
CC(Oc1ccc2[nH]nc(/C(F)=C/c3ccc(CN4CCC(CO)CC4)nc3)c2c1)c1c(Cl)cncc1Cl (stereo not drawn) [Example 9]	10 to 50
CC(Oc1ccc2[nH]nc(/C(F)=C/c3ccc(CNC4CCOCC4)nc3)c2c1)c1c(Cl)cncc1Cl (stereo not drawn) [Example 10]	10 to 50
CC(Oc1ccc2[nH]nc(/C(F)=C/c3ccc(CNCCN4CCOCC4)nc3)c2c1)c1c(Cl)cncc1Cl (stereo not drawn) [Example 11]	50 to 1000
CC(Oc1ccc2[nH]nc(/C(F)=C/c3ccc(CN4CCC(O)C4)nc3)c2c1)c1c(Cl)cncc1Cl (stereo not drawn) [Example 12]	10 to 50
CC(Oc1ccc2[nH]nc(/C(F)=C/c3ccc(CN4CCOCC4)nn3)c2c1)c1c(Cl)cncc1Cl (stereo not drawn) [Example 13]	50 to 1000
CCN(Cc1ccc(/C(F)=C/c2n[nH]c3ccc(O[C@H](C)c4c(Cl)cncc4Cl)cc23)cn1)C1CCOCC1 [Example 18b]	≤ 10
C[C@H](Oc1ccc2[nH]nc(/C=C(\F)c3ccc(CN4CCC(CO)CC4)nc3)c2c1)c1c(Cl)cncc1Cl [Example 22]	10 to 50
C[C@H](Oc1ccc2[nH]nc(/C=C(\F)c3ccc(CN4CCC(O)C4)nc3)c2c1)c1c(Cl)cncc1Cl (stereo partly drawn) [Example 23]	≤ 10
C[C@@H](Oc1ccc2[nH]nc(/C=C(\F)c3ccc(CN[C@H]4C[C@H](O)C4)nc3)c2c1)c1c(Cl)cncc1Cl [Example 26]	10 to 50
C[C@@H](Oc1ccc2[nH]nc(/C=C(\F)c3ccc(CN4CCN(CCO)CC4)nc3)c2c1)c1c(Cl)cncc1Cl [Example 27]	≤ 10
C[C@@H](Oc1ccc2[nH]nc(/C=C(\F)c3ccc(CN4CCC(O)C4)nc3)c2c1)c1c(Cl)cncc1Cl (stereo partly drawn) [Example 31]	≤ 10
C[C@@H](Oc1ccc2[nH]nc(/C=C(\F)c3ccc(OC4CCOCC4)nc3)c2c1)c1c(Cl)cncc1Cl [Example 36]	50 to 1000
C[C@@H](Oc1ccc2[nH]nc(/C=C(\F)c3ccc(O[C@H]4CCOC4)nc3)c2c1)c1c(Cl)cncc1Cl [Example 37]	50 to 1000
C[C@@H](Oc1ccc2[nH]nc(/C=C(\F)c3ccc(OC4CCNCC4)nc3)c2c1)c1c(Cl)cncc1Cl [Example 43]	≤ 10
CC(Oc1ccc2[nH]nc(/C=C/c3ccc(CN4CCOCC4)nc3)c2c1)c1c(Cl)cncc1Cl (stereo not drawn) [Example 48]	≤ 10
CC(Oc1ccc2[nH]nc(/C=C/c3cncc(CN4CCOCC4)c3)c2c1)c1c(Cl)cncc1Cl (stereo not drawn) [Example 50]	≤ 10

SMILES	IC50 [nM]
CC(Oc1ccc2[nH]nc(/C=C/c3cnc(CN4CCOCC4)nc3)c2c1)c1c(Cl)cncc1Cl (stereo not drawn) [Example 51]	≤ 10
CC(Oc1ccc2[nH]nc(/C=C/c3ncc(CN4CCOCC4)cn3)c2c1)c1c(Cl)cncc1Cl (stereo not drawn) [Example 52]	50 to 1000
CC(Oc1ccc2[nH]nc(/C=C/c3ccc(CN4CCOCC4)cc3Cl)c2c1)c1c(Cl)cncc1Cl (stereo not drawn) [Example 55]	50 to 1000
CC(Oc1ccc2[nH]nc(/C=C/c3ccc(CN4CCOCC4)c4ccccc34)c2c1)c1c(Cl)cncc1Cl (stereo not drawn) [Example 56]	50 to 1000
Cc1cc(/C=C/c2n[nH]c3ccc(OC(C)c4c(Cl)cncc4Cl)cc23)ccc1CN1CCOCC1 (stereo not drawn) [Example 58]	50 to 1000
CC(Oc1ccc2[nH]nc(/C=C/c3ccc(CN4CCOCC4)cc3C#N)c2c1)c1c(Cl)cncc1Cl (stereo not drawn) [Example 60]	50 to 1000
CC(Oc1ccc2[nH]nc(/C=C/c3cc(N)c(CN4CCOCC4)cc3F)c2c1)c1c(Cl)cncc1Cl (stereo not drawn) [Example 61]	50 to 1000
CC(Oc1ccc2[nH]nc(/C=C/c3ccc(CN4CCOCC4)c(C(F)(F)F)c3)c2c1)c1c(Cl)cncc1Cl (stereo not drawn) [Example 64]	50 to 1000
[2H]C([2H])(c1ccc(/C=C/c2n[nH]c3ccc(OC(C)c4c(Cl)cncc4Cl)cc23)nn1)N1CCOCC1 (stereo not drawn) [Example 65]	≤ 10
CC(Oc1ccc2[nH]nc(/C=C/c3ccc(CN4CCOCC4)nn3)c2c1)c1c(Cl)cncc1Cl (stereo not drawn) [Example 66]	≤ 10
C[C@@H](Oc1ccc2[nH]nc(/C=C/c3ccc(CN4CCOCC4)nn3)c2c1)c1c(Cl)cncc1Cl [Example 67]	≤ 10
C[C@@H](Oc1ccc2[nH]nc(/C=C/c3ccc(CNC4CCOCC4)nn3)c2c1)c1c(Cl)cncc1Cl [Example 68]	≤ 10
C[C@@H](Oc1ccc2[nH]nc(/C=C/c3ccc(CN4CCC(O)C4)nn3)c2c1)c1c(Cl)cncc1Cl (stereo partly drawn) [Example 69]	≤ 10
CC(Oc1ccc2[nH]nc(/C=C/c3ccc(N4CCN(C)CC4)nc3)c2c1)c1c(Cl)cncc1Cl (stereo not drawn) [Example 71]	10 to 50
CC(Oc1ccc2[nH]nc(/C=C/c3ccc(CN4CCC(O)CC4)cc3)c2c1)c1c(Cl)cncc1Cl (stereo not drawn) [Example 72]	≤ 10
CC(Oc1ccc2[nH]nc(/C=C/c3ccc(CN4CC[C@@H](N(C)C)C4)cc3)c2c1)c1c(Cl)cncc1Cl (stereo partly drawn) [Example 73]	≤ 10
CC(Oc1ccc2[nH]nc(/C=C/c3ccc(CN4CCC(CO)CC4)cc3)c2c1)c1c(Cl)cncc1Cl (stereo not drawn) [Example 74]	≤ 10
CC(Oc1ccc2[nH]nc(/C=C/c3ccc(CNC4CCOCC4)cc3)c2c1)c1c(Cl)cncc1Cl (stereo not drawn) [Example 78]	≤ 10
CC(Oc1ccc2[nH]nc(/C=C/c3ccc(CN4CCc5ccccc5C4)cc3)c2c1)c1c(Cl)cncc1Cl (stereo not drawn) [Example 80]	50 to 1000
CC(Oc1ccc2[nH]nc(/C=C/c3ccc(CN4CCCCC4)cc3)c2c1)c1c(Cl)cncc1Cl (stereo not drawn) [Example 81]	≤ 10
CC(Oc1ccc2[nH]nc(/C=C/c3ccc(CN4CCC(c5ccccc5)CC4)cc3)c2c1)c1c(Cl)cncc1Cl (stereo not drawn) [Example 82]	50 to 1000

SMILES	IC50 [nM]
CC(Oc1ccc2[nH]nc(/C=C/c3ccc(CN4CCN(c5ccccc5)CC4)cc3)c2c1)c1c(Cl)cncc1Cl (stereo not drawn) [Example 83]	50 to 1000
CC(Oc1ccc2[nH]nc(/C=C/c3ccc(CN(CCN(C)C)Cc4ccccc4)cc3)c2c1)c1c(Cl)cncc1Cl (stereo not drawn) [Example 86]	50 to 1000
CC(Oc1ccc2[nH]nc(/C=C/c3ccc(CNCc4ccccc4)cc3)c2c1)c1c(Cl)cncc1Cl (stereo not drawn) [Example 87]	50 to 1000
CC(Oc1ccc2[nH]nc(/C=C/c3ccc(CN4CCOC(CO)C4)cc3)c2c1)c1c(Cl)cncc1Cl (stereo not drawn) [Example 88]	10 to 50
CC(Oc1ccc2[nH]nc(/C=C/c3ccc(CNCCN4CCOCC4)cc3)c2c1)c1c(Cl)cncc1Cl (stereo not drawn) [Example 89]	≤ 10
CC(Oc1ccc2[nH]nc(/C=C/c3ccc(CN4CCC(Cc5ccccc5)CC4)cc3)c2c1)c1c(Cl)cncc1Cl (stereo not drawn) [Example 90]	50 to 1000
CCN(Cc1ccccc1)Cc1ccc(/C=C/c2n[nH]c3ccc(OC(C)c4c(Cl)cncc4Cl)cc23)cc1 (stereo not drawn) [Example 91]	50 to 1000
CC(Oc1ccc2[nH]nc(/C=C/c3ccc(CN4CCN(C)CC4)cc3)c2c1)c1c(Cl)cncc1Cl (stereo not drawn) [Example 93]	10 to 50
CC(Oc1ccc2[nH]nc(/C=C/c3ccc(CN(C)Cc4ccccc4)cc3)c2c1)c1c(Cl)cncc1Cl (stereo not drawn) [Example 94]	50 to 1000
CCN(Cc1ccccc1)Cc1ccc(/C=C/c2n[nH]c3ccc(OC(C)c4c(Cl)cncc4Cl)cc23)cc1 (stereo not drawn) [Example 95]	50 to 1000
CC1CN(Cc2ccc(/C=C/c3n[nH]c4ccc(OC(C)c5c(Cl)cncc5Cl)cc34)cc2)CCN1 (stereo not drawn) [Example 97]	≤ 10
CC(Oc1ccc2[nH]nc(/C=C/c3ccc(CNc4ccccc4)cc3)c2c1)c1c(Cl)cncc1Cl (stereo not drawn) [Example 99]	50 to 1000
CC(Oc1ccc2[nH]nc(/C=C/c3ccc(CN4CCCOCC4)cc3)c2c1)c1c(Cl)cncc1Cl (stereo not drawn) [Example 100]	≤ 10
CC(Oc1ccc2[nH]nc(/C=C/c3ccc(CN4CCCC(CO)C4)cc3)c2c1)c1c(Cl)cncc1Cl (stereo not drawn) [Example 101]	≤ 10
CC(Oc1ccc2[nH]nc(/C=C/c3ccc(CN4CCN(C(C)C)CC4)cc3)c2c1)c1c(Cl)cncc1Cl (stereo not drawn) [Example 102]	≤ 10
CNC(=O)C1CCN(Cc2ccc(/C=C/c3n[nH]c4ccc(OC(C)c5c(Cl)cncc5Cl)cc34)cc2)CC1 (stereo not drawn) [Example 103]	≤ 10
CCN(Cc1ccc(/C=C/c2n[nH]c3ccc(OC(C)c4c(Cl)cncc4Cl)cc23)cc1)C1CCCCC1 (stereo not drawn) [Example 104]	50 to 1000
CC(Oc1ccc2[nH]nc(/C=C/c3ccc(CN4CCC(O)C4)cc3)c2c1)c1c(Cl)cncc1Cl (stereo not drawn) [Example 106]	≤ 10
CC(Oc1ccc2[nH]nc(/C=C/c3ccc(CN4CCOC[C@@H]4C)cc3)c2c1)c1c(Cl)cncc1Cl (stereo partly drawn) [Example 107]	50 to 1000
CC1CN(Cc2ccc(/C=C/c3n[nH]c4ccc(OC(C)c5c(Cl)cncc5Cl)cc34)cc2)CC(C)O1 (stereo not drawn) [Example 108]	50 to 1000
CC(=O)N1CCN(Cc2ccc(/C=C/c3n[nH]c4ccc(OC(C)c5c(Cl)cncc5Cl)cc34)cc2)CC1 (stereo not drawn) [Example 109]	≤ 10
